This note sets out measurements from ChEMBL document CHEMBL5338761 (J Med Chem, 2023).

The target in experiment [1] is T1, DNA polymerase theta (Homo sapiens, UniProt O75417). Description: Inhibition of POLQ (unknown origin) incubated for 15 mins in presence of ATP and NADPH by absorbance based analysis.
Experiment [2] concerns the target T1, DNA polymerase theta. The experiment can be described thus: Inhibition of N-terminal/C-termianl Flag-tagged POLQ (unknown origin) (2 to 2590 residues) expressed in baculovirus incubated for 30 mins by fluorescence based analysis.
Experiment [3] concerns the target T1, DNA polymerase theta. The experiment can be described thus: Inhibition of POLQ PD (unknown origin) (1819 to 2590 residues) incubated for 15 mins by fluorescence based analysis.
The target of experiment [4] is T1, DNA polymerase theta. Description: Inhibition of POLQ PD (unknown origin) (1819 to 2590 residues) incubated for 15 mins by luminescence based analysis.
Experiment [5] relates to MCF7. Description: Antiproliferative activity against human MCF7 cells assessed as inhibition of cell growth incubated for 6 days by CellTiter-Glo assay. The experiment is classed as functional, cell-based. To be noted: MCF7, 144 h.
Experiment [6] has as its target T1, DNA polymerase theta. The experiment can be described thus: Inhibition of POLQ (unknown origin) (1 to 987 residues) using […] as substrate incubated for 30 mins in presence of ATP relative to control.
A short description of experiment [7]: Antiproliferative activity against human MDA-1986 cells assessed as inhibition of cell growth incubated for 6 days by CellTiter-Glo assay. The experiment is classed as functional, cell-based. To be noted: MDA1986, 144 h.
For experiment [8], the system named is PC-3. Description: Antiproliferative activity against human PC-3 cells assessed as inhibition of cell growth incubated for 6 days by CellTiter-Glo assay. Type of experiment: functional, cell-based. To be noted: PC-3, 144 h. (In ATP-based viability assays light output follows the ATP content of the culture.)
For experiment [9], the system named is HCT-116. Description: Antiproliferative activity against human HCT-116 cells assessed as inhibition of cell growth incubated for 6 days by CellTiter-Glo assay. Type of experiment: functional, cell-based. As to conditions: HCT-116, 144 h.
For experiment [10], the system named is A549. The experiment can be described thus: Antiproliferative activity against human A549 cells assessed as inhibition of cell growth incubated for 6 days by CellTiter-Glo assay. Type of experiment: functional, cell-based. To be noted: A549, 144 h.
Experiment [11] relates to TERT-RPE1. The experiment can be described thus: Antiproliferative activity against human RPE-1 cells expressing wild type BRCA1 assessed as inhibition of cell growth by CellTiter-Glo assay. Type of experiment: functional, cell-based.
Experiment [12] concerns TERT-RPE1. The experiment can be described thus: Antiproliferative activity against BRCA1 knockout human RPE-1 cells assessed as inhibition of cell growth by CellTiter-Glo assay. Type of experiment: functional, cell-based.
Experiment [13] relates to TERT-RPE1. Description: Antiproliferative activity against P53 knockout human RPE-1 cells assessed as inhibition of cell growth by CellTiter-Glo assay. Type of experiment: functional, cell-based.
In experiment [14] the test system is TOV21G. Description: Antiproliferative activity against HR knockout human TOV-21G cells assessed as fold change in olaparib IC50 by CellTiter-Glo assay. The experiment is classed as functional.
For experiment [15], the system named is TERT-RPE1. The experiment can be described thus: Antiproliferative activity against BRCA1 knockout human RPE-1 cells assessed as fold change in rucaparib IC50 by CellTiter-Glo assay. The experiment is classed as functional.
The subject of experiment [16] is TERT-RPE1. The experiment can be described thus: Antiproliferative activity against P53 and BRCA1 knockout human RPE-1 cells assessed as inhibition of cell growth by CellTiter-Glo assay. Type of experiment: functional, cell-based.
Experiment [17] addresses T1, DNA polymerase theta. The experiment can be described thus: Inhibition of POLQ (unknown origin). Type of experiment: single protein.
Experiment [18] has as its target T1, DNA polymerase theta. The experiment can be described thus: Inhibition of POLQ PD (unknown origin) (1819 to 2590 residues) by fluorescence based analysis.

T1 sequence (O75417 whole entry, the tested form may be a part): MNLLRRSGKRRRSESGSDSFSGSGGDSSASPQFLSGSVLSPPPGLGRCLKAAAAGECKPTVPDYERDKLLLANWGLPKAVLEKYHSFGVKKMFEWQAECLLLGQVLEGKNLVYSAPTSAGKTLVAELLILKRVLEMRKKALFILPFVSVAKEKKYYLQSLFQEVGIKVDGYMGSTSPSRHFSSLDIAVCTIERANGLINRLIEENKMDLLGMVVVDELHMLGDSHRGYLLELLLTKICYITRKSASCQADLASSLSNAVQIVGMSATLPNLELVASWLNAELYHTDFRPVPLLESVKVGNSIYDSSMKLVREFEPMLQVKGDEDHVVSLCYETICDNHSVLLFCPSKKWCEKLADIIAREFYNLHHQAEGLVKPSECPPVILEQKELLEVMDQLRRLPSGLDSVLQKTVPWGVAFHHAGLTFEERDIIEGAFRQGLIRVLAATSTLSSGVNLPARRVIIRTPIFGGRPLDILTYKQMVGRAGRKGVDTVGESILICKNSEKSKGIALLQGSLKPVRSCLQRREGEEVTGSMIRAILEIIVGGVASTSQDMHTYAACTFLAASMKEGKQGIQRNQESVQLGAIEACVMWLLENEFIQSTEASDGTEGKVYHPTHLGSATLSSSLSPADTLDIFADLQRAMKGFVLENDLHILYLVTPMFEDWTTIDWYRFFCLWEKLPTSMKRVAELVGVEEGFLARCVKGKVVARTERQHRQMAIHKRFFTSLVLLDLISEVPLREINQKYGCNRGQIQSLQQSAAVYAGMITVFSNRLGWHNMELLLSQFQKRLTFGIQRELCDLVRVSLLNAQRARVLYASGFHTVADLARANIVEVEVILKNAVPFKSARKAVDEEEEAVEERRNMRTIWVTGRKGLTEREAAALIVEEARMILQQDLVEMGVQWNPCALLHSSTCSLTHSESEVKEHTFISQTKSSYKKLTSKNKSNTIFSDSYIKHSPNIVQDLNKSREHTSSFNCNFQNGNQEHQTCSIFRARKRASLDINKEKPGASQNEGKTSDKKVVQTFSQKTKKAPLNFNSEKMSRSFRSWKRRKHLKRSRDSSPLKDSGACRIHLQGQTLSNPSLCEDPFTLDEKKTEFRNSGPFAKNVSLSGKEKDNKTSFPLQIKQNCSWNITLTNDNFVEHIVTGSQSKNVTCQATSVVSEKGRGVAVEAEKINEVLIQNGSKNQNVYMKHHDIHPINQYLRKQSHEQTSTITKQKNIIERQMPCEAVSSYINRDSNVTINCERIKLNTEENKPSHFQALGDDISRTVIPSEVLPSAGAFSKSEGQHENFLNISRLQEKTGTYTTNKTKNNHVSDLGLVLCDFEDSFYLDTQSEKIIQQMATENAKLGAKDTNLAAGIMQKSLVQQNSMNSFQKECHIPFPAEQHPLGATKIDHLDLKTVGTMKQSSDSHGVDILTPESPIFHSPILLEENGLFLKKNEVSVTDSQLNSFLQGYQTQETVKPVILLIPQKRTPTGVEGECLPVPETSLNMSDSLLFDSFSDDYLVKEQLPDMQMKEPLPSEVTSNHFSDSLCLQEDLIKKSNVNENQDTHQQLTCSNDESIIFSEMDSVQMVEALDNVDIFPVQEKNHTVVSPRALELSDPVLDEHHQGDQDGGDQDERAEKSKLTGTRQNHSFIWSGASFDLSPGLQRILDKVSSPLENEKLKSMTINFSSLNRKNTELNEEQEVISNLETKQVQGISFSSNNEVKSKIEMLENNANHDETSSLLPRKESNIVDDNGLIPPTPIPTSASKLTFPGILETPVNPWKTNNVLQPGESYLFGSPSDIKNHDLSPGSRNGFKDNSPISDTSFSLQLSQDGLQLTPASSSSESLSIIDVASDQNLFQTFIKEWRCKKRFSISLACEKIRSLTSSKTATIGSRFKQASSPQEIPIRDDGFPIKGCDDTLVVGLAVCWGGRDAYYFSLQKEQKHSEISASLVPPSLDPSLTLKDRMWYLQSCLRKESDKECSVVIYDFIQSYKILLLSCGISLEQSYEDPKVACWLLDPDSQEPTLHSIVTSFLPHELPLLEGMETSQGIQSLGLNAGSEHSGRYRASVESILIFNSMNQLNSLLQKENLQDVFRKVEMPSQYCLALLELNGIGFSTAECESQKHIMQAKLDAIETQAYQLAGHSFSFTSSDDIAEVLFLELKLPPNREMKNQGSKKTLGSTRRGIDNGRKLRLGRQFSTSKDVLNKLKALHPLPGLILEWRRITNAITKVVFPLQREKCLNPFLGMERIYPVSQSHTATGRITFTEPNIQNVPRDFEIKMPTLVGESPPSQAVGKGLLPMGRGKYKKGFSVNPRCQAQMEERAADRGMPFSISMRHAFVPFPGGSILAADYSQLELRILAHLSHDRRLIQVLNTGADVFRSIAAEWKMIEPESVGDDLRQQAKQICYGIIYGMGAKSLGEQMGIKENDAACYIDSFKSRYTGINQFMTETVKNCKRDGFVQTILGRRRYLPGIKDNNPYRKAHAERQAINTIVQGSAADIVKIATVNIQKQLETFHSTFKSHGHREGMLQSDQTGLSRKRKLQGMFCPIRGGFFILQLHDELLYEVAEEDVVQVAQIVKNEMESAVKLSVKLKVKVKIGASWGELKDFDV

For orientation: IC50 means the concentration at which inhibition is half-maximal. In the case of `COc1cnc(Cl)cc1-c1cc(C)ncc1C(=O)Nc1nnc(OCc2ccc(Cl)cn2)s1`, the IC50 in experiment [1] was ≤ 0.2 µM.

For the compound `Cc1ccc(NC(=O)Nc2cncc(-c3ccc(OCC4(C)CCOC4)c(C)c3)n2)cn1` (centres undefined), in experiment [2], the IC50 worked out at 0.002 µM. Turning to `Cc1cc(-c2nc(NC(=O)N[C@H]3CCCNC3)cs2)ccc1OC[C@]1(C)CCOC1`, the IC50 in experiment [2] came out at 0.007 µM. With `Cc1nc(SCC(=O)N(C)c2ccccc2)c(C#N)c(C)c1Cl`, the IC50 in experiment [3] and in experiment [4] was 0.2 µM each time. Consider `CN(C(=O)[C@@H]1CCCN1c1cc(C(F)(F)F)cc(C(F)(F)F)n1)c1ccc(F)cc1`, for which the IC50 in experiment [3] and in [4] was ≤ 0.2 µM each time. For the compound `COc1ccccc1-c1cc(C)ncc1C(=O)Nc1nnc(OCc2ccc(Cl)cn2)s1`, the IC50 in experiment [1] was ≤ 0.2 µM. What is called inhibition is the relative decrease from the control value, in per cent. As to `Cc1c(OC2CCN(C)CC2)ccc2cc(NC(=O)Nc3ccc(C(F)(F)F)cc3)c(=O)oc12`, the IC50 in [5] is 0.46 µM; in experiment [7], 0.9 µM; in experiment [8], 0.06 µM; in experiment [9], 0.8 µM; in [10] it was 0.13 µM; in [11], 0.45 µM. In addition, the IC50 in [12] is 0.16 µM. The inhibition in [6] amounted to 50%. Regarding `CO[C@@H]1[C@@H](OC(N)=O)[C@@H](O)[C@H](Oc2ccc3c(O)c(NC(=O)c4ccc(O)c(CC=C(C)C)c4)c(=O)oc3c2C)OC1(C)C` [NOVOBIOCIN], the IC50 in experiment [13] is 358 µM; in [16], 97.2 µM; in [12] it was 86 µM. In addition, the “fold change (FC)” value in experiment [14] is given as 40; in experiment [15], 20. `Cc1cc(C(F)(F)F)cc(N2C(=O)OC[C@H]2c2nc(Cl)cn2-c2ccc(F)c(Cl)c2)n1`: in experiment [3], the IC50 is 0.005 µM. For the compound `CN(C(=O)[C@@H]1CCCN1c1cc(C(F)(F)F)ccn1)c1ccc(F)cc1`, the IC50 in experiment [17] was < 0.2 µM. With `Cc1nc(NCc2nccn2-c2ccccc2)c(C#N)c(C)c1Cl`, in [17], the IC50 was < 0.2 µM. For `CN(C(=O)CNc1nc(C(F)(F)F)cc(C(F)(F)F)c1C#N)c1ccc(F)cc1`, in experiment [18], the IC50 is < 0.2 µM. As to `Cc1nc(NCC(=O)N(C)c2ccccc2)c(C#N)c(C)c1Cl`, the IC50 in experiment [17] is < 0.2 µM. As to `Cc1cccc(N(C)C(=O)[C@@H]2CCCN2c2nc(C)cc(C(F)(F)F)c2C#N)c1`, the IC50 in [17] was < 0.2 µM. Consider `N#Cc1c(C(F)(F)F)cc(C(F)(F)F)nc1NCc1nccn1-c1ccc(F)cc1`, for which, in experiment [18], the IC50 is < 0.2 µM. For the compound `COc1cccc(-c2cc(C(=O)N[C@H]3CC[C@H](c4ccc(OC5CCNCC5)cc4)CC3)ccc2OC)c1`, the inhibition in experiment [6] is 70%.
